Measured values taken from the supplement of paper PMC4932681.

How the values were obtained:
BT-474 Tam2 [1] = assay: drug sensitivity score (DSS) (DSS (dimensionless)); higher = more sensitive; extreme values may be limits of the assay; conditions: 4-OH-tamoxifen in medium 1 µM; 72 h
How it was run: (§1)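 Breast cancer cell lines and their resistant derivatives were seeded into 384-well plates holding FO2Baq library drugs at five concentrations spanning a 10 000-fold range. Resistant lines were in medium with 1 μM of the selecting drug. Cells were incubated 72 h at 37 °C, and CellTiter-Glo viability was read on a PHERAstar and normalised to vehicle-only and positive controls. Drug sensitivity score, relative IC50 (curve midpoint) and top-dose inhibition came from logistic dose–response fits (Breeze pipeline).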

ZR-75-1 [2] = assay: as above; conditions: 72 h
How it was run: as §1

MCF-7 Tam1 [3] = assay: as above; conditions: 4-OH-tamoxifen in medium 1 µM; 72 h
How it was run: as §1

MCF-7 [4] = assay: as above; conditions: 72 h
How it was run: as §1

ZR-75-1 Tam1 [5] = assay: as above; conditions: 4-OH-tamoxifen in medium 1 µM; 72 h
How it was run: as §1

BT-474 Tam1 [6] = assay: as above; conditions: 4-OH-tamoxifen in medium 1 µM; 72 h
How it was run: as §1

T-47D Tam2 [7] = assay: as above; conditions: 4-OH-tamoxifen in medium 1 µM; 72 h
How it was run: as §1

T-47D Tam1 [8] = assay: as above; conditions: 4-OH-tamoxifen in medium 1 µM; 72 h
How it was run: as §1

T-47D [9] = assay: as above; conditions: 72 h
How it was run: as §1

BT-474 [10] = assay: as above; conditions: 72 h
How it was run: as §1

ZR-75-1 Tam2 [11] = assay: as above; conditions: 4-OH-tamoxifen in medium 1 µM; 72 h
How it was run: as §1

BT-474 Tam2 [12] = assay: relative IC50 (midpoint of fitted logistic curve, plateau may be below 50% inhibition; CellTiter-Glo viability); higher = less potent; conditions: 4-OH-tamoxifen in medium 1 µM; 72 h
How it was run: as §1

ZR-75-1 [13] = assay: as above; conditions: 72 h
How it was run: as §1

MCF-7 Tam1 [14] = assay: as above; conditions: 4-OH-tamoxifen in medium 1 µM; 72 h
How it was run: as §1

MCF-7 [15] = assay: as above; conditions: 72 h
How it was run: as §1

ZR-75-1 Tam1 [16] = assay: as above; conditions: 4-OH-tamoxifen in medium 1 µM; 72 h
How it was run: as §1

BT-474 Tam1 [17] = assay: as above; conditions: 4-OH-tamoxifen in medium 1 µM; 72 h
How it was run: as §1

T-47D Tam2 [18] = assay: as above; conditions: 4-OH-tamoxifen in medium 1 µM; 72 h
How it was run: as §1

T-47D Tam1 [19] = assay: as above; conditions: 4-OH-tamoxifen in medium 1 µM; 72 h
How it was run: as §1

T-47D [20] = assay: as above; conditions: 72 h
How it was run: as §1

BT-474 [21] = assay: as above; conditions: 72 h
How it was run: as §1

ZR-75-1 Tam2 [22] = assay: as above; conditions: 4-OH-tamoxifen in medium 1 µM; 72 h
How it was run: as §1

Row | Structure (SMILES) | relative IC50 (BT-474 Tam2 [12]) | relative IC50 (MCF-7 Tam1 [14]) | relative IC50 (MCF-7 [15]; 4-OH-tamoxifen in medium 1 µM) | relative IC50 (BT-474 Tam1 [17]) | relative IC50 (T-47D Tam2 [18]) | relative IC50 (T-47D Tam1 [19]) | relative IC50 (T-47D [20]; 4-OH-tamoxifen in medium 0 µM) | relative IC50 (T-47D [20]; 4-OH-tamoxifen in medium 1 µM) | relative IC50 (BT-474 [21]; 4-OH-tamoxifen in medium 0 µM) | relative IC50 (BT-474 [21]; 4-OH-tamoxifen in medium 1 µM) | relative IC50 (MCF-7 [15]; 4-OH-tamoxifen in medium 0 µM) | drug sensitivity score (BT-474 Tam2 [1]) | drug sensitivity score (ZR-75-1 [2]; 4-OH-tamoxifen in medium 0 µM) | drug sensitivity score (ZR-75-1 [2]; 4-OH-tamoxifen in medium 1 µM) | drug sensitivity score (MCF-7 Tam1 [3]) | drug sensitivity score (MCF-7 [4]; 4-OH-tamoxifen in medium 0 µM) | drug sensitivity score (MCF-7 [4]; 4-OH-tamoxifen in medium 1 µM) | drug sensitivity score (ZR-75-1 Tam1 [5]) | drug sensitivity score (BT-474 Tam1 [6]) | drug sensitivity score (T-47D Tam2 [7]) | drug sensitivity score (T-47D Tam1 [8]) | drug sensitivity score (T-47D [9]; 4-OH-tamoxifen in medium 0 µM) | drug sensitivity score (T-47D [9]; 4-OH-tamoxifen in medium 1 µM) | drug sensitivity score (BT-474 [10]; 4-OH-tamoxifen in medium 0 µM) | drug sensitivity score (BT-474 [10]; 4-OH-tamoxifen in medium 1 µM) | drug sensitivity score (ZR-75-1 Tam2 [11]) | relative IC50 (ZR-75-1 [13]; 4-OH-tamoxifen in medium 0 µM) | relative IC50 (ZR-75-1 [13]; 4-OH-tamoxifen in medium 1 µM) | relative IC50 (ZR-75-1 Tam1 [16]) | relative IC50 (ZR-75-1 Tam2 [22])
1 | CCNC(=O)CCC/C=C\C[C@@H]1[C@@H](/C=C/[C@@H](O)CCc2ccccc2)[C@H](O)C[C@@H]1O [Bimatoprost] | > 5500 nM | > 5500 nM | > 5500 nM | > 5500 nM | > 5500 nM | > 5500 nM | > 5500 nM | > 5500 nM | > 5500 nM | > 5500 nM |  | 0 | 0 | 0 | 0 | 0 | 0 | 0 | 0 | 0 | 0 | 0 | 0.0302 | 0 | 0 | 0 | > 5500 nM | > 5500 nM | > 5500 nM | > 5500 nM
2 | COc1c2occc2cc2ccc(=O)oc12 [Methoxsalen] | > 10000 nM | > 10000 nM | > 10000 nM | > 10000 nM | > 10000 nM | > 10000 nM | > 10000 nM | > 10000 nM | > 10000 nM | > 10000 nM | > 10000 nM | 0 | 0 | 0 | 0 | 0 | 0 | 0 | 0 | 0 | 0 | 0 | 0 | 0 | 0 | 0 | > 10000 nM | > 10000 nM | > 10000 nM | > 10000 nM
3 | CN(C)c1nc(N(C)C)nc(N(C)C)n1 [Altretamine] | > 10000 nM | > 10000 nM |  | > 10000 nM | > 10000 nM | 3370 nM | > 10000 nM |  | > 10000 nM | > 10000 nM | > 10000 nM | 0 | 0 | 0 | 0 | 0 | 0.0496 | 0 | 0 | 0 | 2.61 | 0 | 0.283 | 0 | 0 | 0 | > 10000 nM | > 10000 nM | > 10000 nM | > 10000 nM
4 | CC1=C2C[C@H]3[C@@H](CC=C4C[C@@H](O)CC[C@@]43C)[C@@H]2CC[C@]12O[C@@H]1C[C@H](C)CN[C@H]1[C@H]2C [Cyclopamine] | > 10000 nM | > 10000 nM | > 10000 nM | > 10000 nM | > 10000 nM | > 10000 nM | > 10000 nM | > 10000 nM | > 10000 nM | > 10000 nM | > 10000 nM | 0 | 0 | 0 | 0 | 0 | 0 | 0 | 0 | 0 | 0 | 0 | 0 | 0 | 0 | 0 | > 10000 nM | > 10000 nM | > 10000 nM | > 10000 nM
5 | CC[C@@]1(O)C(=O)OCc2c1cc1n(c2=O)Cc2cc3ccccc3nc2-1 [Camptothecin] | > 5000 nM | 1350 nM | 649 nM | > 5000 nM | 302 nM | 32.6 nM | 44.2 nM |  | > 5000 nM | > 5000 nM | 32.6 nM | 0 | 13.9 | 7.82 | 3 | 23 | 8.74 | 12.4 | 0 | 4.93 | 15.6 | 15.6 | 3.21 | 0 | 0 | 13.3 | 38.4 nM | 95.6 nM | 49.7 nM | 59.8 nM

The next lines start with results.

Row | relative IC50 (BT-474 Tam2 [12]) | relative IC50 (MCF-7 Tam1 [14]) | relative IC50 (MCF-7 [15]; 4-OH-tamoxifen in medium 1 µM) | relative IC50 (BT-474 Tam1 [17]) | relative IC50 (T-47D Tam2 [18]) | relative IC50 (T-47D Tam1 [19]) | relative IC50 (T-47D [20]; 4-OH-tamoxifen in medium 0 µM) | relative IC50 (T-47D [20]; 4-OH-tamoxifen in medium 1 µM) | relative IC50 (BT-474 [21]; 4-OH-tamoxifen in medium 0 µM) | relative IC50 (BT-474 [21]; 4-OH-tamoxifen in medium 1 µM) | relative IC50 (MCF-7 [15]; 4-OH-tamoxifen in medium 0 µM) | Structure (SMILES) | drug sensitivity score (BT-474 Tam2 [1]) | drug sensitivity score (ZR-75-1 [2]; 4-OH-tamoxifen in medium 0 µM) | drug sensitivity score (ZR-75-1 [2]; 4-OH-tamoxifen in medium 1 µM) | drug sensitivity score (MCF-7 Tam1 [3]) | drug sensitivity score (MCF-7 [4]; 4-OH-tamoxifen in medium 0 µM) | drug sensitivity score (MCF-7 [4]; 4-OH-tamoxifen in medium 1 µM) | drug sensitivity score (ZR-75-1 Tam1 [5]) | drug sensitivity score (BT-474 Tam1 [6]) | drug sensitivity score (T-47D Tam2 [7]) | drug sensitivity score (T-47D Tam1 [8]) | drug sensitivity score (T-47D [9]; 4-OH-tamoxifen in medium 0 µM) | drug sensitivity score (T-47D [9]; 4-OH-tamoxifen in medium 1 µM) | drug sensitivity score (BT-474 [10]; 4-OH-tamoxifen in medium 0 µM) | drug sensitivity score (BT-474 [10]; 4-OH-tamoxifen in medium 1 µM) | drug sensitivity score (ZR-75-1 Tam2 [11]) | relative IC50 (ZR-75-1 [13]; 4-OH-tamoxifen in medium 0 µM) | relative IC50 (ZR-75-1 [13]; 4-OH-tamoxifen in medium 1 µM) | relative IC50 (ZR-75-1 Tam1 [16]) | relative IC50 (ZR-75-1 Tam2 [22])
6 | 182 nM | 582 nM | 419 nM | 202 nM | 472 nM | 148 nM | 713 nM | 884 nM | 359 nM | 283 nM | 201 nM | CS(=O)(=O)N1CCN(Cc2cc3nc(-c4cccc5[nH]ncc45)nc(N4CCOCC4)c3s2)CC1 [Pictilisib (GDC-0941)] | 17.2 | 12.7 | 9.23 | 8.69 | 15.4 | 12.8 | 11.3 | 17.4 | 9.95 | 14.7 | 9.41 | 9.59 | 10.2 | 16.4 | 12.1 | 208 nM | 453 nM | 514 nM | 415 nM
7 | > 2500 nM | > 2500 nM | > 2500 nM | > 2500 nM | > 2500 nM | > 2500 nM | > 2500 nM | > 2500 nM | > 2500 nM | > 2500 nM | > 2500 nM | c1cc(CN2CCCNCCNCCCNCC2)ccc1CN1CCCNCCNCCCNCC1 [Plerixafor] | 0 | 0 | 0 | 0 | 0 | 0 | 0 | 0 | 0 | 0 | 0.403 | 0 | 0 | 0 | 0 | > 2500 nM | > 2500 nM | > 2500 nM | > 2500 nM
8 | 3.76 nM | > 1000 nM |  | 4.18 nM | 218 nM | 97.6 nM |  | > 1000 nM | 9.18 nM | 6.18 nM | > 1000 nM | CCOc1cc2ncc(C#N)c(Nc3ccc(OCc4ccccn4)c(Cl)c3)c2cc1NC(=O)/C=C/CN(C)C [Neratinib] | 28.7 | 0 | 0 | 0 | 0 | 2.07 | 0 | 28.3 | 2.11 | 3.53 | 0.25 | 0 | 20.8 | 25.6 | 0 | > 1000 nM | > 1000 nM | > 1000 nM | > 1000 nM
9 | > 10000 nM | > 10000 nM | > 10000 nM | > 10000 nM | > 10000 nM | > 10000 nM | > 10000 nM | > 10000 nM | > 10000 nM | > 10000 nM | > 10000 nM | CNNCc1ccc(C(=O)NC(C)C)cc1 [Procarbazine] | 0 | 0 | 0 | 0 | 0 | 0 | 0 | 0 | 0 | 0 | 0 | 0 | 0 | 0 | 0 | > 10000 nM | > 10000 nM | > 10000 nM | > 10000 nM
